The test system of one test is LN18 cells. Description: Cell proliferation / viability assay, LN18. The note with it: Supplementary Figure 8c. The format is cell-based, Human. On the procedure:
Cells were seeded into 12-well plates at a density of 1 × 10^4 cells per well. Manual cell counting was carried out at the indicated times using trypan blue and a haemocytometer.
To determine the antitumour effect of the peptide in vitro, the peptide was incubated with cells for 24 h when the cells were grown to approximately 80% confluence. Cell viability was measured at the indicated time points. The cell lysates were collected for immunoprecipitation as described above. To determine the antitumour effect of the peptide in vivo, the peptide was stereotactically injected using identical coordinates of tumour implantation in 3 μl of PBS. Briefly, 3 weeks after intracranial tumour cell implantation, mice with similar tumour sizes and similar weights were selected and randomly arranged into five groups (n = 6): PBS, PepC (0.25 mg/kg TAT-PepC per injection), Pep9 low dose (Pep9 L, 0.05 mg/kg TAT-Pep9 per injection), Pep9 medium dose (Pep9 M, 0.1 mg/kg TAT-Pep9 per injection), and Pep9 high dose (Pep9 H, 0.25 mg/kg TAT-Pep9 per injection). Each mouse received intratumoural injection every 10 days (at Day 21, Day 31, Day 41, and Day 51), and tumour growth was monitored at Day 21, Day 41, and Day 56. The experiment was terminated at Day 80, and all the mice (if they were alive) were sacrificed as previously described.

Test [1] relates to bovine serum albumin (BSA). Description: ELISA, binding of HRP-conjugated peptide to BSA (control). Conditions: HRP-conjugated peptide on BSA, 1 h, absorbance 450 nm. Here is the method:
The 96-well plate was coated with bovine serum albumin (BSA) or purified NLRP6. HRP-conjugated PepC or HRP-conjugated Pep9 was incubated with BSA or NLRP6 for 1 h, and the unbound peptide was washed away. The HRP substrate was added, and the absorbance was detected at 450 nm. For the competitive ELISA, the 96-well plate was coated with purified p85α. The binding of NLRP6 to p85α competed with 10 μM PepC or 5 μM, 10 μM, 20 μM Pep9 for 1 h.

From PMC10539329, “NLRP6 potentiates PI3K/AKT signalling by promoting autophagic degradation of p85α to drive tumorigenesis” (Nature Communications, 2023) come the findings set out here.

With “SAEGYQYRALYD [Pep1, peptide found on the p85α SH3 domain; selected as the control named PepC]”, the Relative cell viability in the test with LN18 cells (5 μM, replicate 1) was determined as 0.95; in the test on LN18 cells (5 μM, replicate 2) it was 0.92; with LN18 cells (5 μM, replicate 3), 0.93; in the test with LN18 cells (10 μM, replicate 1), 0.92; with LN18 cells (10 μM, replicate 2), 0.95; in the test on LN18 cells (10 μM, replicate 3) it was 0.90. Besides, the Relative cell viability is recorded as 0.95 in the test with LN18 cells (20 μM, replicate 1); 0.92 in the test with LN18 cells (20 μM, replicate 2); 0.90 with LN18 cells (20 μM, replicate 3); 0.92 in the test on LN18 cells (30 μM, replicate 1); 0.88 with LN18 cells (30 μM, replicate 2); 0.94 in the test with LN18 cells (30 μM, replicate 3). In addition, the values for the ELISA value in test [1] (replicate 1), in test [1] (replicate 2) and in test [1] (replicate 3) were 0.10, 0.15 and 0.12, respectively.
